# Test: recombinant UMI read abundance after kanamycin selection (control-corrected) (log10(CPM+1)); higher = more efficient recombination; extreme values may be limits of the assay; sequences stand for … in AGTGCAGAGAAAATCGGCCAGTTTTCTCTGCCTGCAGTCCGCATGCCGTGGGACCCCTTGGGTTCTAACCTGTTGCCTAGATTTATGCAGCGGACTGCCTTTCTCCCAAAGTGATAAACCGG…AGGTTGGTTTCACT; site = the 11-nt donor
# Procedure, shortened: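 Under IPTG (0.07 mM) plus kanamycin, or without selection, Escherichia coli carrying a UMI-tagged donor and donor-binding-loop pair library and a target plasmid for the IS621 bridge recombinase were plated in two replicates. Recombinant UMIs were PCR-amplified across the donor–target junction and sequenced. Counts were converted to CPM, averaged over replicates, scaled by control-derived factors and reported as log10(CPM+1).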
# 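Also: IS621 bridge recombinase in Escherichia coli cells against a fixed T5 target plasmid.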
row,Sequence,recombinant UMI read abundance (log10)
1,AGGACTTCATGGACCGGTTTTCCCGGTAATCCGTATTTGAC (site AGGACTCCTGT),0.509
2,AGGACTTCATGGACCGGTTTTCCCGGTAATCCGTATTTGAC (site AGGACTGCTGT),0
3,AGGACTTCATGGACCGGTTTTCCCGGTAATCCGTATTTGAC (site AGGACTTCTGT),2.76
4,AGGAGGACATGGACCGGTTTTCCCGGTAATCCGTATTTGAA (site AGGAAGACTTG),0
5,AGGAGGACATGGACCGGTTTTCCCGGTAATCCGTATTTGAA (site AGGAGGACTTT),2.19
6,AGGAGGACATGGACCGGTTTTCCCGGTAATCCGTATTTGCC (site AGGAAGACTTG),0
7,AGGAGGACATGGACCGGTTTTCCCGGTAATCCGTATTTGCC (site AGGAGGACTGG),1.68
8,AGGATGACATGGACCGGTTTTCCCGGTAATCCGTATTTGCG (site AGGAAGACTTG),0
9,AGGATGACATGGACCGGTTTTCCCGGTAATCCGTATTTGCG (site AGGATGACTCG),2.3
10,AGGCACGCATGGACCGGTTTTCCCGGTAATCCGTATTTGGG (site AAGCACGCTCC),0.371
11,AGGCACGCATGGACCGGTTTTCCCGGTAATCCGTATTTGGG (site ACGCACGCTCC),0.183
12,AGGCACGCATGGACCGGTTTTCCCGGTAATCCGTATTTGGG (site AGGCACGCTCC),1.76
13,AGGCACGCATGGACCGGTTTTCCCGGTAATCCGTATTTGGG (site ATGCACGCTCC),0.0107
14,AGGCACTCATGGACCGGTTTTCCCGGTAATCCGTATTTGCA (site AGGCACTCTTG),2.66
15,AGGCGAGCATGGACCGGTTTTCCCGGTAATCCGTATTTGCG (site AGGCGAGCTCG),2.02
16,AGGCGTGCATGGACCGGTTTTCCCGGTAATCCGTATTTGGA (site AGGCGTGCTTC),0.745
17,AGGCTAGCATGGACCGGTTTTCCCGGTAATCCGTATTTGTT (site AGACTAGCTAA),0.334
18,AGGCTAGCATGGACCGGTTTTCCCGGTAATCCGTATTTGTT (site AGCCTAGCTAA),0.017
19,AGGCTAGCATGGACCGGTTTTCCCGGTAATCCGTATTTGTT (site AGGCTAGCTAA),0.779
20,AGGCTAGCATGGACCGGTTTTCCCGGTAATCCGTATTTGTT (site AGTCTAGCTAA),0.0182
21,AGGCTGGCATGGACCGGTTTTCCCGGTAATCCGTATTTGTC (site AGGCTGGCTGA),0
22,AGGGAAACATGGACCGGTTTTCCCGGTAATCCGTATTTGCA (site AGGAAGACTTG),0.301
23,AGGGAAACATGGACCGGTTTTCCCGGTAATCCGTATTTGCA (site AGGGAAACTTG),1.42
24,AGGGAACCATGGACCGGTTTTCCCGGTAATCCGTATTTGAT (site AGGGAACCTAT),0
25,AGGGAACCATGGACCGGTTTTCCCGGTAATCCGTATTTGAT (site CGGGAACCTAT),0

row,Sequence,recombinant UMI read abundance (log10)
1,AGGGAACCATGGACCGGTTTTCCCGGTAATCCGTATTTGAT (site GGGGAACCTAT),0
2,AGGGAACCATGGACCGGTTTTCCCGGTAATCCGTATTTGAT (site TGGGAACCTAT),0
3,AGGGAGACATGGACCGGTTTTCCCGGTAATCCGTATTTGCC (site AGGGAGACTGG),1.26
4,AGGGAGACATGGACCGGTTTTCCCGGTAATCCGTATTTGCG (site AGGAAGACTTG),0.64
5,AGGGAGACATGGACCGGTTTTCCCGGTAATCCGTATTTGCG (site AGGGAGACTCG),1.54
6,AGGGAGCCATGGACCGGTTTTCCCGGTAATCCGTATTTGCC (site AGGGAGCCTGG),0
7,AGGGCTACATGGACCGGTTTTCCCGGTAATCCGTATTTGAC (site AGGACTACTGT),1.24
8,AGGGCTACATGGACCGGTTTTCCCGGTAATCCGTATTTGAC (site AGGCCTACTGT),0
9,AGGGCTACATGGACCGGTTTTCCCGGTAATCCGTATTTGAC (site AGGGCTACTGT),2.55
10,AGGGCTACATGGACCGGTTTTCCCGGTAATCCGTATTTGAC (site AGGTCTACTGT),1
11,AGGGTCCCATGGACCGGTTTTCCCGGTAATCCGTATTTGTC (site AGGGTCCCTGA),0.534
12,AGGTAAACATGGACCGGTTTTCCCGGTAATCCGTATTTGAG (site AGGTAAACTCT),2.07
13,AGGTAGACATGGACCGGTTTTCCCGGTAATCCGTATTTGCC (site AGGAAGACTTG),0
14,AGGTAGACATGGACCGGTTTTCCCGGTAATCCGTATTTGCC (site AGGTAGACTGG),2.79
15,AGGTAGGCATGGACCGGTTTTCCCGGTAATCCGTATTTGTT (site AGGTAGGCTAA),1.94
16,AGGTATCCATGGACCGGTTTTCCCGGTAATCCGTATTTGTC (site AGGTATCCTGA),0.494
17,AGGTCAGCATGGACCGGTTTTCCCGGTAATCCGTATTTGAT (site AGGTCAGCTAT),1.84
18,AGGTCTACATGGACCGGTTTTCCCGGTAATCCGTATTTGAC (site AGGACTACTGT),0
19,AGGTCTACATGGACCGGTTTTCCCGGTAATCCGTATTTGAC (site AGGCCTACTGT),2.1
20,AGGTCTACATGGACCGGTTTTCCCGGTAATCCGTATTTGAC (site AGGGCTACTGT),0.00558
21,AGGTCTACATGGACCGGTTTTCCCGGTAATCCGTATTTGAC (site AGGTCTACTGT),1.18
22,AGGTGCCCATGGACCGGTTTTCCCGGTAATCCGTATTTGGA (site AGGTGCCCTTC),0.00688
23,AGGTGGGCATGGACCGGTTTTCCCGGTAATCCGTATTTGTG (site AGGTGGGCTCA),1.56
24,AGGTTAGCATGGACCGGTTTTCCCGGTAATCCGTATTTGAG (site AGGTTAGCTCT),1.94
25,AGGTTCCCATGGACCGGTTTTCCCGGTAATCCGTATTTGTA (site AGGTTCCCTAA),0.0166

row,Sequence,recombinant UMI read abundance (log10)
1,AGGTTCCCATGGACCGGTTTTCCCGGTAATCCGTATTTGTA (site AGGTTCCCTCA),0.0195
2,AGGTTCCCATGGACCGGTTTTCCCGGTAATCCGTATTTGTA (site AGGTTCCCTGA),0
3,AGGTTCCCATGGACCGGTTTTCCCGGTAATCCGTATTTGTA (site AGGTTCCCTTA),1.5
4,AGGTTGCCATGGACCGGTTTTCCCGGTAATCCGTATTTGTG (site AGGTTACCTCA),0.00238
5,AGGTTGCCATGGACCGGTTTTCCCGGTAATCCGTATTTGTG (site AGGTTCCCTCA),0.00991
6,AGGTTGCCATGGACCGGTTTTCCCGGTAATCCGTATTTGTG (site AGGTTGCCTCA),0.00688
7,AGGTTGCCATGGACCGGTTTTCCCGGTAATCCGTATTTGTG (site AGGTTTCCTCA),0.00563
8,AGTAATGCATGGACCGGTTTTCCCGGTAATCCGTATTTGAG (site AGTAATGCTCT),2.15
9,AGTACACCATGGACCGGTTTTCCCGGTAATCCGTATTTGAC (site AGTACACCTGT),0
10,AGTACACCATGGACCGGTTTTCCCGGTAATCCGTATTTGAC (site CGTACACCTGT),0.0138
11,AGTACACCATGGACCGGTTTTCCCGGTAATCCGTATTTGAC (site GGTACACCTGT),0
12,AGTACACCATGGACCGGTTTTCCCGGTAATCCGTATTTGAC (site TGTACACCTGT),0
13,AGTAGATCATGGACCGGTTTTCCCGGTAATCCGTATTTGGA (site AGTAGATCTTC),1.45
14,AGTAGGTCATGGACCGGTTTTCCCGGTAATCCGTATTTGAA (site AGTAGGTCTTT),1.07
15,AGTCACTCATGGACCGGTTTTCCCGGTAATCCGTATTTGCA (site AGTCACTCTTG),2.8
16,AGTCAGCCATGGACCGGTTTTCCCGGTAATCCGTATTTGGA (site AGTCAGCCTTC),0.0114
17,AGTCCACCATGGACCGGTTTTCCCGGTAATCCGTATTTGGG (site AGTCCACCTCC),0.00962
18,AGTCGGTCATGGACCGGTTTTCCCGGTAATCCGTATTTGGC (site AGTCGGTCTGC),0
19,AGTCTGACATGGACCGGTTTTCCCGGTAATCCGTATTTGCT (site AGTCTGACTAG),1.87
20,AGTGCCACATGGACCGGTTTTCCCGGTAATCCGTATTTGAG (site AGTGCCACTCT),0.4
21,AGTGCCCCATGGACCGGTTTTCCCGGTAATCCGTATTTGCT (site AGTGCCCCTAG),0.594
22,AGTGCTCCATGGACCGGTTTTCCCGGTAATCCGTATTTGAA (site AGTGCTCCTTT),0.416
23,AGTTACACATGGACCGGTTTTCCCGGTAATCCGTATTTGCC (site AGTTACACTGG),2.42
24,AGTTATGCATGGACCGGTTTTCCCGGTAATCCGTATTTGGA (site AATTATGCTTC),0.159
25,AGTTATGCATGGACCGGTTTTCCCGGTAATCCGTATTTGGA (site ACTTATGCTTC),0.849

# Reference: the supplement of paper PMC11208160
